Marks after values point to notes of the source that are not given here.
Experiments:
[1] = Solubility and stability under the test conditions; type: physicochemical; conditions: 3 mM in HEPES assay buffer (diluted from 10 mM aqueous solution)
[2] = biological target: T1, rat NTPDase3 (Rattus norvegicus, UniProt A6I415); experiment: Inhibition of rat NTPDase3; conditions: for inhibition at 1000 µM: read-out: percent inhibition at 1 mM NTPDase3
T1 sequence (A6I415 1-529): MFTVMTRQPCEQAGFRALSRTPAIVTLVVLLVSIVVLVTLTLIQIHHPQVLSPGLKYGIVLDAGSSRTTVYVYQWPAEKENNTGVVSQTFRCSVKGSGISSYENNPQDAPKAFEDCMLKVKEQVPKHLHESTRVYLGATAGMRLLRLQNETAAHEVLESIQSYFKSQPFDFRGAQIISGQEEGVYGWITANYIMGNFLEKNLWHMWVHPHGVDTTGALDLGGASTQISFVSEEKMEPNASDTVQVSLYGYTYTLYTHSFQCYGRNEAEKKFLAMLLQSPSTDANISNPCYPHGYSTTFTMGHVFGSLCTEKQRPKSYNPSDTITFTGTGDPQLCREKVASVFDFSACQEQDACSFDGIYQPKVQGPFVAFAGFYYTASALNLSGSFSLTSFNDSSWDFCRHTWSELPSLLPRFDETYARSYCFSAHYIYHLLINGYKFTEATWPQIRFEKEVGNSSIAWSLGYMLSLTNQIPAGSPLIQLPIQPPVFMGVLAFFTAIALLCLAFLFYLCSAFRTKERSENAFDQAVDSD

[3] = biological target: T2, rat NTPDase1 (Rattus norvegicus, UniProt P97687); experiment: Inhibition of rat NTPDase1; conditions: for percent inhibition at 1 mM NTPDase1 / inhibition of rat NTPDase1 (in words): rat NTPDase1; for percent inhibition at 1 mM NTPDase1: 1 mM compound, ATP 400 μM; for inhibition at 1000 µM: read-out: percent inhibition at 1 mM NTPDase1
T2 sequence (P97687 1-511): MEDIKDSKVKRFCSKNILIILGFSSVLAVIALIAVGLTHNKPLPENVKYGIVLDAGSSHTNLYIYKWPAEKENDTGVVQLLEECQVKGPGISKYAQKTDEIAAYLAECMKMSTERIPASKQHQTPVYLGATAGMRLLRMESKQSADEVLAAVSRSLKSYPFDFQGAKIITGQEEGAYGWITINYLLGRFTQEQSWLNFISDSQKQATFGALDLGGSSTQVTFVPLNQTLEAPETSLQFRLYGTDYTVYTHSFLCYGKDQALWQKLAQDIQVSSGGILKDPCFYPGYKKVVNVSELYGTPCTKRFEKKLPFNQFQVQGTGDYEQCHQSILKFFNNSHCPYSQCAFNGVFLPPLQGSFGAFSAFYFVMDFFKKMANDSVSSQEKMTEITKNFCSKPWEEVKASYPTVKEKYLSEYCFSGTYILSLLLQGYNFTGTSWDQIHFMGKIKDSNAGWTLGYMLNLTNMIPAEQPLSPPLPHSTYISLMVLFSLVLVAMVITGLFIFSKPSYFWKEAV

[4] = biological target: T3, rat NTPDase2 (Rattus norvegicus, UniProt O35795); experiment: Inhibition of rat NTPDase2; conditions: for inhibition at 1000 µM: read-out: percent inhibition at 1 mM NTPDase2
T3 sequence (O35795 1-495): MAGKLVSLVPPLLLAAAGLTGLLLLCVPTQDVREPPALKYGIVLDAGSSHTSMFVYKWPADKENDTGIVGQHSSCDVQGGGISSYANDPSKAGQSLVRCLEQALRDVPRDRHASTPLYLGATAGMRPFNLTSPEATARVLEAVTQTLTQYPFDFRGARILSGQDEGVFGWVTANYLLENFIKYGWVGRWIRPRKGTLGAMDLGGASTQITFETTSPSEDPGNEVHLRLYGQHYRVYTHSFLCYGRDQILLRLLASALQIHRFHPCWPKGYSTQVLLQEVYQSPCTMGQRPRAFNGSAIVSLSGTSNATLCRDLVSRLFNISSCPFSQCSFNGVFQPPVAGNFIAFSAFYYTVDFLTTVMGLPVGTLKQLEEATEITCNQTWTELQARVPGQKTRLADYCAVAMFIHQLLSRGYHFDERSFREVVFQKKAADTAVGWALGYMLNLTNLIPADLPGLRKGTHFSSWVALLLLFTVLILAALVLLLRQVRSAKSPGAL

[5] = system: P2Y2; conditions: read-out: IC50 P2Y2 antagonist; cited from earlier work
[6] = system: NTPDases1, 2, and 3; conditions: rat NTPDase1, 2 and 3
[7] = system: ectonucleotidase activity in rat vas deferens tissue; conditions: at 100 μM; cited from earlier work
[8] = rat NTPDase3, inhibitor 10, 20, and 30 μM

Row | Structure (SMILES) | inhibition at 1000 µM [3] [%] | inhibition at 1000 µM [4] [%] | inhibition at 1000 µM [2] [%] | also measured
1 | Nc1c(S(=O)(=O)O)cc(Nc2ccc(Cl)cc2)c2c1C(=O)c1ccccc1C2=O [Compound 18, 1-Amino-2-sulfo-4-p-chloroanilinoanthraquinone] |  |  |  | time until precipitation (in words) [1]: short period of time; Ki [2]: 16.4 ± 1.6 µM; effect on Vmax value of NTPDase3 [2, 8]: not affected; mechanism of inhibition (NTPDase3 kinetics, Lineweaver-Burk plot) [2, 8]: competitive; effect on Km value of NTPDase3 ([2]; rat NTPDase3, with increasing concentration of inhibitor (10, 20, 30 μM)): increased
2 | Cc1ccccc1Nc1cc(S(=O)(=O)O)c(N)c2c1C(=O)c1ccccc1C2=O [Compound 12] |  |  |  | percent inhibition at 1 mM NTPDase1 [3]: (25%)
3 | CC(=O)Nc1ccc(Nc2cc(S(=O)(=O)O)c(N)c3c2C(=O)c2ccccc2C3=O)cc1 [Compound 19] |  |  |  | IC50 [5]: 6 to 12 µM; NTPDase inhibitory activity (in words) [6]: nearly inactive; percent inhibition at 1 mM NTPDase1 [3]: (15%)
4 | Cc1cccc(Nc2cc(S(=O)(=O)O)c(N)c3c2C(=O)c2ccccc2C3=O)c1C [Compound 14] |  |  |  | percent inhibition at 1 mM NTPDase1 [3]: (67%)^b
5 | CCOc1ccccc1Nc1cc(S(=O)(=O)O)c(N)c2c1C(=O)c1ccccc1C2=O [Compound 17] |  |  |  | percent inhibition at 1 mM NTPDase1 [3]: (17%)
6 | COc1ccc(CCNc2cc(S(=O)(=O)O)c(N)c3c2C(=O)c2ccccc2C3=O)cc1OC [Compound 22, Sodium 1-amino-4-(3,4-dimethoxyphenethylamino)-9,10-dioxo-9,10-dihydroanthracene 2-sulfonate] |  |  |  | Ki [3]: 173 ± 6 µM; Ki [4]: 54.1 ± 6.8 µM; Ki [2]: 23.4 ± 0.4 µM
7 | Cc1cc(Nc2cccc3ccccc23)c2c(c1N)C(=O)c1ccccc1C2=O [Compound 26, 1-Amino-2-methyl-4-(1-naphthylamino)anthraquinone] | 0 | 0 | 0 | 
8 | Nc1c(S(=O)(=O)O)cc(Nc2ccc3ccccc3c2)c2c1C(=O)c1ccccc1C2=O [Compound 21, Sodium 1-amino-4-(2-naphthylamino)-9,10-dioxo-9,10-dihydroanthracene 2-sulfonate] |  |  |  | Ki [2]: 2.22 ± 1.03 µM
9 | COc1ccccc1Nc1cc(S(=O)(=O)O)c(N)c2c1C(=O)c1ccccc1C2=O [Compound 16] |  |  |  | IC50 [5]: ~9 µM; inhibition of rat NTPDase1 (in words) [3]: weak; percent inhibition at 1 mM NTPDase1 [3]: (57%)
10 | Nc1c(S(=O)(=O)[O-])cc(Nc2cccc3ccccc23)c2c1C(=O)c1ccccc1C2=O.[Na+] [Compound 20, Sodium 1-amino-4-(1-naphthylamino)-9,10-dioxo-9,10-dihydroanthracene 2-sulfonate] | 0 | 0 |  | inhibition of rat NTPDase1 (in words) [3]: not inhibitory; inhibition of rat NTPDase2 (in words) ([4]; rat NTPDase2): not inhibitory
11 | Nc1c(S(=O)(=O)Oc2ccc([N+](=O)[O-])cc2)cc(Br)c2c1C(=O)c1ccccc1C2=O [Compound 30, 1-Amino-4-bromoanthraquinone-2-sulfonic acid 4-nitrophenyl ester] | 0 | 0 | 0 | 
12 | Nc1c(S(=O)(=O)O)cc(Nc2ccccc2)c2c1C(=O)c1ccccc1C2=O [Compound 11] |  |  |  | inhibition of ATP degradation in rat vas deferens tissue [7]: inactive
13 | Cc1ccc(Nc2cc(C)c(N)c3c2C(=O)c2ccccc2C3=O)cc1 [Compound 25, 1-Amino-2-methyl-4-(4-methylphenylamino)anthraquinone] | 0 | 0 | 0 | 

Second part, led by results:

Row | inhibition at 1000 µM [3] [%] | inhibition at 1000 µM [4] [%] | inhibition at 1000 µM [2] [%] | Structure (SMILES) | also measured
14 | 0 | 0 | 0 | Cc1cccc(Nc2cc(C)c(N)c3c2C(=O)c2ccccc2C3=O)c1 [Compound 24, 1-Amino-2-methyl-4-(3-methylphenylamino)anthraquinone] | 
15 | 0 | 0 | 0 | Nc1c(S(=O)(=O)Oc2ccccc2[N+](=O)[O-])cc(Br)c2c1C(=O)c1ccccc1C2=O [Compound 28, 1-Amino-4-bromoanthraquinone-2-sulfonic acid 2-nitrophenyl ester] | 
16 | 0 | 0 | 0 | Nc1c(S(=O)(=O)NCc2ccccc2)cc(Br)c2c1C(=O)c1ccccc1C2=O [Compound 32, 1-Amino-4-bromoanthraquinone-2-sulfonic acid benzylamide] | 
17 | 0 | 0 | 0 | Nc1c(S(=O)(=O)Oc2cccc([N+](=O)[O-])c2)cc(Br)c2c1C(=O)c1ccccc1C2=O [Compound 29, 1-Amino-4-bromoanthraquinone-2-sulfonic acid 3-nitrophenyl ester] | 
18 | 0 | 0 | 0 | Nc1c(S(=O)(=O)Nc2ccccc2)cc(Br)c2c1C(=O)c1ccccc1C2=O [Compound 31, 1-Amino-4-bromoanthraquinone-2-sulfonic acid phenyl amide] | 
19 | 0 | 0 | 0 | Cc1cc(Nc2ccccc2)c2c(c1N)C(=O)c1ccccc1C2=O [Compound 23, 1-Amino-2-methyl-4-phenylaminoanthraquinone] | 
20 | 0 | 0 | 0 | Nc1c(S(=O)(=O)NCCc2ccccc2)cc(Br)c2c1C(=O)c1ccccc1C2=O [Compound 33, 1-Amino-4-bromoanthraquinone-2-sulfonic acid phenethylamide] | 
21 | 0 | 0 | 0 | COS(=O)(=O)c1cc(Br)c2c(c1N)C(=O)c1ccccc1C2=O [Compound 27, 1-Amino-4-bromoanthraquinone-2-sulfonic acid methyl ester] | 

Source: article PMC2721768 (Purinergic Signalling, 2008)
